Source: patent US20230312493A1, “DEUTERATED AND TRITIATED N-(4,5-DIMETHYLTHIAZOLO-2(3H)-YLIDEN)-2,2,3,3-TETRAMETHYLCYCLOPROPANE-1-CARBOXAMIDE DERIVATIVES AND THE USE THEREOF” (HELMHOLTZ-ZENTRUM DRESDEN-ROSSENDORF E.V., priority 2020, published 2023)

How the values were obtained:
[1] = in vivo metabolite study (metabolic stability, radio-HPLC of brain homogenate and plasma); design: species or system female CD-1 mice; settings: for metabolic stability (comparison in words): in vivo, compared with another radiotracer; for percentage of intact radiotracer in the brain / percentage of intact radiotracer in the plasma: female CD-1 mice, 30 min after the injection, radio-HPLC
Method: The metabolic stability of [^18F]JHU94620-D4 was determined in accordance with the method described by Moldovan et al., J. Med. Chem. 2016, 59, 7840-7855. In the same way, the metabolic stability of JHU94620 and [^18F]JHU94620 was determined. The radio-HPLC chromatograms shown in FIGS. 3 and 4 were determined using a ReproSil-Pur C18 AQ column (250×4.6 mm, […]; eluting agent: 10-90-10% MeCN/20 mM NH4OAc; flow: 1 ml/min). JHU94620 has the following formula: […]
It is seen in FIG. 4 that in the in vivo metabolite study in female CD-1 mice the percentage of intact radiotracer [^18F]JHU94620-D4 in the brain was ~80% (radio-HPLC, extraction yield >97%) and in the plasma was ~15% (radio-HPLC, extraction yield >95%) 30 min after the injection.
In the in vivo metabolite study in female CD-1 mice in case of JHU94620 the percentage of intact radiotracer in the brain was 36% (radio-HPLC, n=3, extraction yield 93%) and in the plasma was 7% (radio-HPLC, n=3, extraction yield 94%) of the total activity 30 min after the injection.

CBR2 [2] = molecular target: T1, CBR2 (Homo sapiens, UniProt P34972); test: homolog competition assay, homogenate of CHO cells stably transfected with human CBR2 receptor, radioligand [^18F]JHU94620-D8; format: binding; design: expressed in transfected cells; host or cells: CHO cells (stably transfected), used as homogenate
T1 sequence (P34972 whole entry): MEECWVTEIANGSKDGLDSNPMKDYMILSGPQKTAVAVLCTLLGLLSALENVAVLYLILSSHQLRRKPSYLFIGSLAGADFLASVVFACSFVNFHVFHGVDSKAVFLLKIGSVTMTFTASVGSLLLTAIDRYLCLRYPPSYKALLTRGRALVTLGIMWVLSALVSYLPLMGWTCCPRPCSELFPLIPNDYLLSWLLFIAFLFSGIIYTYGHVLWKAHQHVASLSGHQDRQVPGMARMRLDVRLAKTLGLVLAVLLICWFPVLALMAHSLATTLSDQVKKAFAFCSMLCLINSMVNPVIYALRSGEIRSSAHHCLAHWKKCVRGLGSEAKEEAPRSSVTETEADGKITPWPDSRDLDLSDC
Method: The equilibrium dissociation constant KD was determined by means of a homolog competition assay. For that, a constant amount of binding protein (homogenate of CHO cells that were stably transfected with human CBR2 receptor; 2 Mio. cells/mL of the batch) was incubated with a constant amount of [^18F]JHU94620-D8 (0.101 nM in the batch) and an increasing concentration of JHU94620 (0.01 nM-10 µM in the batch) for 60 minutes at room temperature in binding buffer (50 mM TRIS-HCl, pH 7.4, with 5 mM of MgCl2, 1 mM EDTA, 1% BSA). Separation of receptor-bound and free radioligand was carried out by filtration over GF/B glass fiber filter incubated with 0.3% of polyethylene imine. Quantification of receptor-bound radioligand was carried out by measuring the filter-bound radioactivity in a gamma counter. Determination of the unspecific bonding of [^18F]JHU94620-D8 was carried out by co-incubation with CP55940 (10 µM in the batch), determination of the adsorption of the radioligand at the glass fiber filter was carried out by incubation without binding protein. […] CP55940 is a synthetic cannabinoid.

CBR2 [3] = molecular target: T1, CBR2; test: CBR2 equilibrium dissociation constant Ki via Cheng-Prusoff equation; format: binding; settings: n = 3; read-out: CBR2 affinity Ki
Method: Using the Cheng-Prusoff equation
the CBR2 equilibrium dissociation constant Ki of JHU94620 was determined. Here, L designates the concentration of the free ligand. […] Replacing hydrogen atoms by […] shall not have any influence on the Ki value. This also applies to the replacement of hydrogen atoms by tritium ions.

[4] = background statement on prior-art compound; cited from earlier work

Compound	metabolic stability (comparison in words) [1]	Kd (CBR2 [2]; calculated as KD = IC50 - radioligand (simplified Cheng-Prusoff), read-out: equilibrium dissociation constant KD) [nM]	percentage of intact radiotracer in the brain [1]	percentage of intact radiotracer in the plasma [1]	Ki (CBR2 [3]) [nM]	IC50 (CBR2 [2]; competition of JHU94620 (0.01 nM-10 µM) with 0.101 nM [^18F]JHU94620-D8, 60 minutes, room temperature) [nM]	metabolic stability (prior art statement) [4]
[2H]C([2H])([18F])C([2H])([2H])C([2H])([2H])C([2H])([2H])n1c(C)c(C)s/c1=N\C(=O)C1C(C)(C)C1(C)C [[^18F]JHU94620-D8, N-(3-(4-([^18F]fluoro)butyl-1,1,2,2,3,3,4,4-ds)-4,5-dimethylthiazole-2(3H)-ylidene)-2,2,3,3-tetramethylcyclopropane-1-carboxamide]	highly similar to that of [^18F]JHU94620-D4	2.72	–	–	–	–	–
[2H]C([2H])([18F])CCC([2H])([2H])n1c(C)c(C)s/c1=N\C(=O)C1C(C)(C)C1(C)C [[^18F]JHU94620-D4, N-(3-(4-([^18F]fluoro)butyl-1,1,4,4-d4)-4,5-dimethylthiazole-2(3H)-ylidene)-2,2,3,3-tetramethylcyclopropane-1-carboxamide]	substantially higher metabolic stability than [^18F]JHU94620	–	~ 80%	~ 15%	–	–	–
Cc1s/c(=N\C(=O)C2C(C)(C)C2(C)C)n(CCCCF)c1C [JHU94620]	–	–	36%	7%	0.4	2.82	–
Cc1s/c(=N\C(=O)C2C(C)(C)C2(C)C)n(CCCC[18F])c1C [[^18F]JHU94620, N-(3-(4-([^18F]fluoro)butyl)-4,5-dimethylthiazole-2(3H)-ylidene)-2,2,3,3-tetramethylcyclopropane-1-carboxamide]	–	–	38%	–	–	–	low metabolic stability
